Measurements as given in patent US10358453B2, “Antiviral compounds” (priority 2015, dated 2019).
Read-outs that look alike come from different tables or passages of the source.

How the values were obtained:
recombinant RSV complex = recombinant RSV complex (Human respiratory syncytial virus A, UniProt P28887); assay: RSV polymerase inhibition assay; format: biochemical; settings: 2 h at 30° C., Table E = <1 μM, Table F = <50 μM
Experimental: Standard RSV polymerase assays were conducted in the presence of 10 nM recombinant RSV complex in a reaction buffer containing Tris-HCl pH7.5, 6 mM MgCl2, and other additives and substrates including RNA oligonucleotides and radionucleotides. Standard reactions were incubated in 96-well plate format for 2 h at 30° C., in the presence of increasing concentration of inhibitor. The reaction was stopped with 90 μL of 0.1M EDTA, and the reaction product was transferred to a “reading” 96-well plate. After washing of the plate, radiolabeled RNA products were detected according to standard procedures with a Trilux Topcount scintillation counter. The compound concentration at which the enzyme-catalyzed rate was reduced by 50% (IC50) was calculated by fitting the data to a non-linear regression (sigmoidal).

[1] = test system: RSV subgenomic replicon 395 HeLa and APC126; assay: RSV subgenomic replicon assay (Renilla luciferase); format: cell-based; settings: human respiratory syncytial virus; RSV replicon cells (395 HeLa 7 days or APC126 3 days); Table G = less than 1 μM, Table H = equal to or higher than 1 μM and less than 50 μM
Source text: The RSV subgenomic replicon 395 HeLa and APC126 were licensed from Apath (Brooklyn, N.Y.) and were originally developed by Dr. Mark Meeples of Center for Vaccines & Immunity, the Research Institute at Nationwide Children's Hospital in Columbus, Ohio. To generate subgenomic RSV replicon, three glycoprotein genes, those for SH, G, and F, from a full-length recombinant GFP-expressing (rg) RSV antigenomic cDNA were deleted. In their place, a blasticidin S deaminase (bsd) gene was inserted. Through multiple steps, the RSV replicon was established in HeLa cells (395 Hela) or BHK cells (APC126). Both 395 HeLa and APC126 cells were cultured in Dulbecco's Modified Eagle Medium (DMEM) containing 4500 mg/L D-glucose, L-glutamine, and 110 mg/L sodium pyruvate (Invitrogen, Cat. #11995-040). The medium was further supplemented with 10% (v/v) fetal bovine serum (FBS) (Mediatech, Cat. #35-010-CV), 1% (v/v) penicillin/streptomycin (Mediatech, Cat. #30-002-CI), and 10 μg/mL of Blasticidin (BSD) (Invivogen, Cat. code ant-bl-1). Cells were maintained at 37° C. in a humidified 5% CO2 atmosphere.
Determination of 50% inhibitory concentration (EC50), 90% inhibitory concentration (EC90) and 50% cytotoxic concentration (CC50) in RSV replicon cells were performed by the following procedure. On the first day, 5000 RSV replicon cells per well were plated in a 96-well plate. On the following day, compounds to be tested were solubilized in 100% DMSO to 100X the desired final testing concentration. Each compound was serially diluted (1:3) up to 9 distinct concentrations. Compounds in 100% DMSO were reduced to 10% (v/v) DMSO by diluting 1:10 in cell culture media. A 10 μL sample of the compounds diluted to 10% (v/v) DMSO with cell culture media was used to treat the RSV replicon cells in 96-well format. The final DMSO concentration was 1% (v/v). Cells were incubated with compounds for 7 days (for 395Hela) or 3 days (for APC126) at 37° C. in a 5% CO2 atmosphere. In each assay, positive control that was previously characterized in the RSV replicon assay was included.
The Renilla Luciferase Assay System (Promega, Cat. #E2820) was used to measure anti-RSV replicon activity. Assay plates were set up as stated above. Luminescence was recorded using a Perkin Elmer multilabel counter Victor3V. EC50, the concentration of the drug required for reducing RSV replicon RNA by 50% in relation to the untreated cell control value, was calculated from the plot of percentage reductions of the […] against the drug concentrations using the Microsoft Excel forecast function.

[2] = Cytotoxicity determination (CCK-8, without addition of virus); format: cell-based; settings: human, HEp-2 cells (uninfected), no virus, Table C = greater than 100 μM, Table D = equal to or less than 100 μM and greater than 10 μM
Experimental: CPE reduction assays are performed as described by Sidwell and Huffman et al., Appl. Microbiol. (1971) 22(5):797-801 with slight modifications. HEp-2 cells (ATCC#, CCL-23) are seeded at a density of 1,500 cells/30 μL/well into the 384-well cell plate(s) (Corning#3701) one day prior to the assay. Compounds are added into 384-well cell plates by Labcyte POD 810 Plate Assembler system. Each of the test compounds is provided to duplicate wells of a 384-well cell plate at final concentrations starting from 100 μM or 1 μM using 1/3 stepwise dilutions for 9 points. Quick-thaw Respiratory Syncytial Virus (RSV) long strain (ATCC#VR-26) stock in a 37° C. water bath. Place on ice until ready to use. Viruses are diluted to the concentration of 100 TCID50/30 μL with medium and 30 μl diluted RSV are added into related wells of 384-well cell plates. For each plate, sixteen wells are set aside as uninfected, untreated cell controls (CC), and nine wells per test plate receive virus only as a control for virus replication (VC). The final DMSO concentration of all wells is 1%. Place the plates at 37° C., 5% CO2 for 5 days.
In order to determine the compound cytotoxicity, in parallel, each of the compounds is applied to duplicate wells in a 384-well cell plate at serial final concentrations starting from 100 μM using ½ stepwise dilutions for 7 points without addition of virus. Incubate the cells at 37° C., 5% CO2 for 5 days. Add 6 μL CCK-8 into each well and incubate in a CO2 incubator at 37° C. for 3-4 h. Read the plates to obtain the optical densities which are used to calculate 50% cytotoxicity concentration (CC50).

[3] = 10 nM recombinant RSV complex, read-out: IC50
[4] = IC50, 10 nM recombinant RSV complex

Chain of recombinant RSV complex (P28887 whole entry): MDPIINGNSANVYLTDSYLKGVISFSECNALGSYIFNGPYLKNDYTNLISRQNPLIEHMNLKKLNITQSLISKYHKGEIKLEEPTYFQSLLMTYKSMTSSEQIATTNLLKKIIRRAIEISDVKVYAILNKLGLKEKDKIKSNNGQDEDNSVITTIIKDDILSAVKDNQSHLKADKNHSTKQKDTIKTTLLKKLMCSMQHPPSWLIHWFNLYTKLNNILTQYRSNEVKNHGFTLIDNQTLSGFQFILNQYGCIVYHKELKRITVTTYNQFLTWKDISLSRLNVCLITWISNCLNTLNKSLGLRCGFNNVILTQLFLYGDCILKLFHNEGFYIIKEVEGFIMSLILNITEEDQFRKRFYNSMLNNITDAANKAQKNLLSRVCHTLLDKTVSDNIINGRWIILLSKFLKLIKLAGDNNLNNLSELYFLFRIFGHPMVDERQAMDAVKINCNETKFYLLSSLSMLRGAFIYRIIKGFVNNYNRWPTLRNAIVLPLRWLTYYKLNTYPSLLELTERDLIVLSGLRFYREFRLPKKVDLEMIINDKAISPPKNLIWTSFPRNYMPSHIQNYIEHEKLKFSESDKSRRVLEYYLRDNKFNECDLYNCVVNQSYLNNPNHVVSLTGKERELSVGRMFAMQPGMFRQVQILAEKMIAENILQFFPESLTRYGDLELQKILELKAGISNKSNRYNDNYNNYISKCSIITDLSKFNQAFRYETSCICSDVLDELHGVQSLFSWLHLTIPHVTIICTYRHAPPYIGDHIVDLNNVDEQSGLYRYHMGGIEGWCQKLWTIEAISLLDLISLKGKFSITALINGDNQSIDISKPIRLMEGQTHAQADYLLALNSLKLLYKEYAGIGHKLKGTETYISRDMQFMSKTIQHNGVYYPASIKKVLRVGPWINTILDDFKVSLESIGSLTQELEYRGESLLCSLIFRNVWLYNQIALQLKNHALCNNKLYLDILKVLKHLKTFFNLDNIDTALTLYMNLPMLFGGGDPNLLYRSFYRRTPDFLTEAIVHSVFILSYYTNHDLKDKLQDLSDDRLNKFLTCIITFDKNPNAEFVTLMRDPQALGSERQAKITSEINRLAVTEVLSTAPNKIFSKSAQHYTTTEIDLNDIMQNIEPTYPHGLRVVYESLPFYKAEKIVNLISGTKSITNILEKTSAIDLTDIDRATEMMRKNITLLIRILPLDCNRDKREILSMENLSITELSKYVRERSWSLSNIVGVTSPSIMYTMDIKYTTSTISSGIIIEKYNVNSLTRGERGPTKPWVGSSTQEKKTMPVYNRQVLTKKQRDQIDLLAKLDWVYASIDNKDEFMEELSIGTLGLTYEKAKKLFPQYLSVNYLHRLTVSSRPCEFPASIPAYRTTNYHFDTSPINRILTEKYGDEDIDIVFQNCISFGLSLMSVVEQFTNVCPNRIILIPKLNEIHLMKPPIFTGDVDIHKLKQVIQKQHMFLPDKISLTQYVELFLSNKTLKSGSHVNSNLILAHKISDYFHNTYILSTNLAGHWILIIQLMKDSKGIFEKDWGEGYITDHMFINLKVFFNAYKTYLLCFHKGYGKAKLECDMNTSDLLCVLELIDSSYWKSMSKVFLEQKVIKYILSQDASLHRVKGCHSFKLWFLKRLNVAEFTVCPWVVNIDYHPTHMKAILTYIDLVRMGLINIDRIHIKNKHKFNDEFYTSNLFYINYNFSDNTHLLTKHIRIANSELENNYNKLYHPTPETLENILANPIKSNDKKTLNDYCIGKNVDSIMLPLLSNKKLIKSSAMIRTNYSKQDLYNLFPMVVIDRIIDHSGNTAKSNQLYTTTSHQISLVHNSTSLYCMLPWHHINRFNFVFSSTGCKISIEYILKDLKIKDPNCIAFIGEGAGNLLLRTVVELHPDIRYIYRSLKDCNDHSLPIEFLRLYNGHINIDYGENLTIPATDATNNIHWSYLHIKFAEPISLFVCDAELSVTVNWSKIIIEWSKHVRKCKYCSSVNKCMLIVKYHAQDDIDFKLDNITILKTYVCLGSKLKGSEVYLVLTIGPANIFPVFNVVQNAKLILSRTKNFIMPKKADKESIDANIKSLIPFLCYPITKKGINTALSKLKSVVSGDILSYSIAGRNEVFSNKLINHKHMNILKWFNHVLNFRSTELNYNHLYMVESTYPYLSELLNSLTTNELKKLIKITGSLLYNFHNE
Chain of recombinant RSV complex (P03421 whole entry, further chain): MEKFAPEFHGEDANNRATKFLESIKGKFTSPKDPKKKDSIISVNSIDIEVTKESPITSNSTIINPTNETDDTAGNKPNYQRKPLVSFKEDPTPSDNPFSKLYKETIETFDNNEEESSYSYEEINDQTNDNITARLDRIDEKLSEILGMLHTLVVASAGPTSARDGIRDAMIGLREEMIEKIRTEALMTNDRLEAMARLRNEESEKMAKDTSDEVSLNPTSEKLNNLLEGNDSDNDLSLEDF

| Structure (SMILES) | IC50 (recombinant RSV complex; [3]) [µM] | EC50 [1] [µM] | CC50 at 5 days [2] [µM] | IC50 (recombinant RSV complex; [4]) [µM] |
| --- | --- | --- | --- | --- |
| COc1cc(C(=O)NC[C@@](O)(c2cc3c(c(-c4ccc(F)cc4)n2)OC[C@@]3(C)NC(C)=N)C(F)(F)F)ccc1OC[C@@H](C)O [Compound 130] | < 1 | < 1 | > 100 |  |
| COc1cc(C(=O)NCC(O)(c2cc(C3(C)COCCN3)cc(-c3ccc(F)cc3)n2)C(F)(F)F)ccc1OCCO (stereo not drawn) [Compound 119] | < 1 | < 1 | > 100 |  |
| CC(C)(N)c1cc(-c2ccc(F)cc2)nc(C(O)(CNC(=O)c2ccc(OC3CC3)c(OCCO)c2)C(F)(F)F)c1 (stereo not drawn) [Compound 36] | < 1 | < 1 | 10 to 100 |  |
| COc1cc(C(=O)NC[C@@](O)(c2cc3c(c(-c4ccc(F)cc4)n2)OC[C@@]3(C)N)C(F)(F)F)cc2ccc(CO)nc12 [Compound 84] | < 1 | < 1 | 10 to 100 |  |
| CC1(N)COc2c1cc(C(O)(CNC(=O)c1ccc(OCCO)c(OC3CC3)c1)C(F)(F)F)nc2-c1ccc(F)cc1 (stereo not drawn) [Compound 24] | < 1 | < 1 | 10 to 100 |  |
| CC1(N)COc2c1cc(C(O)(CNC(=O)c1ccc(CCO)c(OC3CC3)c1)C(F)(F)F)nc2-c1ccc(F)cc1 (stereo not drawn) [Compound 49] | < 1 | < 1 | 10 to 100 |  |
| COc1cc(C(=O)NCC(O)(c2cc3c(c(-c4ccc(F)cc4)n2)OCC3(C)N)C(F)(F)F)ccc1OC(C)CO (stereo not drawn) [Compound 21] | < 1 | < 1 | 10 to 100 |  |
| COc1cc(C(=O)NC[C@@](O)(c2cc3c(c(-c4ccc(F)cc4)n2)NC[C@@]3(C)N)C(F)(F)F)ncc1OCCO [Compound 75] | < 1 | < 1 | 10 to 100 |  |
| COc1cc(C(=O)NC[C@@](O)(c2cc3c(c(-c4ccc(F)cc4)n2)NC[C@@]3(C)N)C(F)(F)F)cc2cccnc12 [Compound 74] | < 1 | < 1 | 10 to 100 |  |
| C[C@@H](O)COc1cc(C(=O)NCC(O)(c2cc(C(C)(C)N)cc(-c3ccc(F)cc3)n2)C(F)(F)F)ccc1OC1CC1 (stereo partly drawn) [Compound 38] |  | < 1 | 10 to 100 | < 1 |
| COc1cc(C(=O)NC[C@@](O)(c2cc3c(c(-c4ccc(F)cc4)n2)OC[C@@]3(C)N)C(F)(F)F)cc(OC)c1OCCO [Compound 67] |  | < 1 | > 100 | < 50 |
| COc1cc(C(=O)NCC(O)(c2cc3c(c(-c4ccncc4)n2)OCC3(C)N)C(F)(F)F)ccc1OCCO (stereo not drawn) [Compound 26] | < 50 | 1 to 50 | > 100 |  |
| C[C@@]1(N)CNc2c1cc([C@](O)(CNC(=O)c1ccc3c(c1)CC(=O)N3)C(F)(F)F)nc2-c1ccc(F)cc1 [Compound 76] | < 1 | < 1 | 10 to 100 |  |
| COc1cc(C(=O)NCC(O)(c2cc(C(C)(N)C3CC3)cc(-c3ccc(F)cc3)n2)C(F)(F)F)ccc1OC[C@@H](C)O (stereo partly drawn) [Compound 88] | < 1 | < 1 | 10 to 100 |  |
